{"source": "paper PMC7614683", "about": "“A small molecule PI3Kα activator for cardioprotection and neuroregeneration” (Nature, 2023)", "experiment_in_all_cases": "SelectScreen Z-LYTE kinase activity assay (SI Table 6)", "format_in_all_cases": "biochemical", "key": {"[1]": {"target": "protein kinases of the Z-LYTE panel (Homo sapiens, UniProt O96013)", "outline": "(§1)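 A single compound concentration of 1 μM was profiled in the vendor's Adapta, Lantha and Z-LYTE kinase assays. In gel-based follow-ups with 200 μM compound, phosphorylation was resolved on Phos-tag SDS-PAGE and quantified by Coomassie. The ATM run used 1 mM ATP with GST-p53 for 30 min, and the mTORC1 run used 250 μM ATP with 4E-BP1 for 3 h.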"}, "[2]": {"target": "protein kinases of the Z-LYTE panel (Homo sapiens, UniProt P31749)", "outline": "as §1"}, "[3]": {"target": "protein kinases of the Z-LYTE panel (Homo sapiens, UniProt Q7KZI7)", "sequence (Q7KZI7 whole entry)": "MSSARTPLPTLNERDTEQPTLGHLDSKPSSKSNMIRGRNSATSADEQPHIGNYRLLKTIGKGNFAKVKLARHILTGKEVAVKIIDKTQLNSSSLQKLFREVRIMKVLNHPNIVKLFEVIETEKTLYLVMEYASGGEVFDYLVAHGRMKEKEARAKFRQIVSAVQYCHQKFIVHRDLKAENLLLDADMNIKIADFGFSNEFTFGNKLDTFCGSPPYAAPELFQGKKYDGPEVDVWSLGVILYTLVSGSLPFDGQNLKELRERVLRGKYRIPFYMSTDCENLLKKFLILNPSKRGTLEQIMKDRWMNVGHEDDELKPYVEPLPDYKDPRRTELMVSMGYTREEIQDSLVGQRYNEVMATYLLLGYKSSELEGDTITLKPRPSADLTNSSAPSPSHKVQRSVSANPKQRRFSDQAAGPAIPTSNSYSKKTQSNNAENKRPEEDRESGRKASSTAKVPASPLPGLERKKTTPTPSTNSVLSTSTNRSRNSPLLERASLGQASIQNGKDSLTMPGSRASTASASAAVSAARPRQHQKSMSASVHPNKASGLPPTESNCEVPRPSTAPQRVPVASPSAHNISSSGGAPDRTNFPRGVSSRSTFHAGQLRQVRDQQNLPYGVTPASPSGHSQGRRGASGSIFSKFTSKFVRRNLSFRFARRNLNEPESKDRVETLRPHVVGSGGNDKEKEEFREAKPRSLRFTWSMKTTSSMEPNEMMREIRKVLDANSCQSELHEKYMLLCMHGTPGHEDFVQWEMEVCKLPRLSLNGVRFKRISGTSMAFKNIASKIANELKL", "outline": "as §1"}, "[4]": {"target": "T1, protein kinases of the Z-LYTE panel (Homo sapiens, UniProt Q12866)", "T1 sequence (Q12866 21-999)": "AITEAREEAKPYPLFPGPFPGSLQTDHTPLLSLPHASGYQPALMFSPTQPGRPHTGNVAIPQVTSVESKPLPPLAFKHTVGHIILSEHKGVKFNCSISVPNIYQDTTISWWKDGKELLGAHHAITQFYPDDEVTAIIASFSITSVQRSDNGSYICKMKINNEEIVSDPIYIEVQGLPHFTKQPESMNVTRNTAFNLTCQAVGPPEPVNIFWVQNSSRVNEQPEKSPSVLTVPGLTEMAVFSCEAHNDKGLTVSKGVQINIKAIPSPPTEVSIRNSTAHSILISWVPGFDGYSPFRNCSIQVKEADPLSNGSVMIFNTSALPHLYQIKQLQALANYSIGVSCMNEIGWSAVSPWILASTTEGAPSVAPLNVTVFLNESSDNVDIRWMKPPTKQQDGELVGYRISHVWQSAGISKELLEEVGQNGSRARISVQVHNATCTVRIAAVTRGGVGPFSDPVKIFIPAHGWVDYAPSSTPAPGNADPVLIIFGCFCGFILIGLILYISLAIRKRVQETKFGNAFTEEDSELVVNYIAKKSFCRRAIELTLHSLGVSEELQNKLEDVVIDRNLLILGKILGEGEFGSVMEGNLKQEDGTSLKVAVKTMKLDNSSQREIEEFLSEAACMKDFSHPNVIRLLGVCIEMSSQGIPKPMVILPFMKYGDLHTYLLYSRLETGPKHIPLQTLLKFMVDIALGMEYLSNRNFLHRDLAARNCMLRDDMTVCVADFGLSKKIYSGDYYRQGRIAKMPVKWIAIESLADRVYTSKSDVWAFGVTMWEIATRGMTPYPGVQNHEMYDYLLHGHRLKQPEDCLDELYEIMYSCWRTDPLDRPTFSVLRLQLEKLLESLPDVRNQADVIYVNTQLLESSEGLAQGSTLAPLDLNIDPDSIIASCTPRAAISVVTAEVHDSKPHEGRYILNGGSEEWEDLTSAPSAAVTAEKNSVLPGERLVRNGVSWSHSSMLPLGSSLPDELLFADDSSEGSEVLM", "outline": "as §1"}, "[5]": {"target": "protein kinases of the Z-LYTE panel (Homo sapiens, UniProt Q9P0L2)", "sequence (Q9P0L2 whole entry)": "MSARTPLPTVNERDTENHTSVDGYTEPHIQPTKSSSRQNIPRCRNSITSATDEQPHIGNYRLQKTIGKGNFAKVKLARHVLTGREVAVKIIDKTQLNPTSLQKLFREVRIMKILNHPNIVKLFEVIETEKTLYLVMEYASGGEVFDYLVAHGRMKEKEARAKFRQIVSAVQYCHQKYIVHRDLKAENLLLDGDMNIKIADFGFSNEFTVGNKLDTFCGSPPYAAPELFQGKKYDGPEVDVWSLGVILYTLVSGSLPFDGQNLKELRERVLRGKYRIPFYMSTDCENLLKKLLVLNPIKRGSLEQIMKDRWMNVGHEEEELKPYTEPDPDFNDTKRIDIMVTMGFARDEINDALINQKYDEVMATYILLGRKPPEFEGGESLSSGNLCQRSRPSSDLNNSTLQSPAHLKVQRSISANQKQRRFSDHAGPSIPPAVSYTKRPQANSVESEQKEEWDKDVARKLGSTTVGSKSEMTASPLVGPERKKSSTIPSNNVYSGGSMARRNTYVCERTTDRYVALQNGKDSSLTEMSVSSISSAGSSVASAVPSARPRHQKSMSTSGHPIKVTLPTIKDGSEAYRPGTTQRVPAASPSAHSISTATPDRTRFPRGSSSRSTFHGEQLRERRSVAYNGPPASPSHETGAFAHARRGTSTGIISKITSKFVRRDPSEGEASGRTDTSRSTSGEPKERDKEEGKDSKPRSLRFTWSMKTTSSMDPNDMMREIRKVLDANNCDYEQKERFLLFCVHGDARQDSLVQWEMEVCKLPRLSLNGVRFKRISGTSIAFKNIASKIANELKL", "outline": "as §1"}, "[6]": {"target": "protein kinases of the Z-LYTE panel (Homo sapiens, UniProt P06213)", "sequence (P06213 28-1382)": "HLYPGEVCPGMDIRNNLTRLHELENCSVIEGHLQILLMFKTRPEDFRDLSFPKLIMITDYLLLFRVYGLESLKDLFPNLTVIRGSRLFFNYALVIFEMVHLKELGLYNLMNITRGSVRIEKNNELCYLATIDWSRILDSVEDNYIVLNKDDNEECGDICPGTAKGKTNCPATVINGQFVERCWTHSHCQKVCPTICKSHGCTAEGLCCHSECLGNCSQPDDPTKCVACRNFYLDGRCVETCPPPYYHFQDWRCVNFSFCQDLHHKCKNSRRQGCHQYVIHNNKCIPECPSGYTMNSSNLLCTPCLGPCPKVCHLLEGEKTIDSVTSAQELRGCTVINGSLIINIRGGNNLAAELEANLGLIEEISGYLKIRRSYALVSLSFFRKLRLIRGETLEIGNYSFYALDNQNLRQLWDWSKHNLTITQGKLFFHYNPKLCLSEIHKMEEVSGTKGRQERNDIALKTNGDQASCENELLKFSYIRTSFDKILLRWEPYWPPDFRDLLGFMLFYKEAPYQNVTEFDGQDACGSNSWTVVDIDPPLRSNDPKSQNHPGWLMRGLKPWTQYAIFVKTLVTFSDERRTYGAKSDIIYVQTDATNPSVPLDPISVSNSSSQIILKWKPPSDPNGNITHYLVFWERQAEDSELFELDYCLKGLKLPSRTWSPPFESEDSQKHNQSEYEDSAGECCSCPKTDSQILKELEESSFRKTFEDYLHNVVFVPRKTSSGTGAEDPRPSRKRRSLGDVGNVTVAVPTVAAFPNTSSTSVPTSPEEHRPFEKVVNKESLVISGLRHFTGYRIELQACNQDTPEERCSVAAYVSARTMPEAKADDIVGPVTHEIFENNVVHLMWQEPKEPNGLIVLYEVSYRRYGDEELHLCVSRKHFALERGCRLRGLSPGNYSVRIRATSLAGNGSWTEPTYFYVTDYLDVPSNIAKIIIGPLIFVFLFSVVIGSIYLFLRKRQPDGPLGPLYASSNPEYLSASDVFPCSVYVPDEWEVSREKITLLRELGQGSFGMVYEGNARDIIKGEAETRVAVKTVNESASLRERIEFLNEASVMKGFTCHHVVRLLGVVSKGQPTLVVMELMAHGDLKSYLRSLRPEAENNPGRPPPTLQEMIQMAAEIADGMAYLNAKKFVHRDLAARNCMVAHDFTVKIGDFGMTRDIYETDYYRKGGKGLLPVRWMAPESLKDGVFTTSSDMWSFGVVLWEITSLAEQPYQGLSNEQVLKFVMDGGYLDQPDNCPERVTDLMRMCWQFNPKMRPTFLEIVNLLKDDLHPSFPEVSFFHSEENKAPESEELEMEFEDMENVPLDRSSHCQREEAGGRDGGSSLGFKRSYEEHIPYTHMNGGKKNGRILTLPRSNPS", "outline": "as §1"}, "[7]": {"target": "protein kinases of the Z-LYTE panel (Homo sapiens, UniProt Q13554)", "outline": "as §1"}, "[8]": {"target": "protein kinases of the Z-LYTE panel (Homo sapiens, UniProt Q9H792)", "sequence (Q9H792 whole entry)": "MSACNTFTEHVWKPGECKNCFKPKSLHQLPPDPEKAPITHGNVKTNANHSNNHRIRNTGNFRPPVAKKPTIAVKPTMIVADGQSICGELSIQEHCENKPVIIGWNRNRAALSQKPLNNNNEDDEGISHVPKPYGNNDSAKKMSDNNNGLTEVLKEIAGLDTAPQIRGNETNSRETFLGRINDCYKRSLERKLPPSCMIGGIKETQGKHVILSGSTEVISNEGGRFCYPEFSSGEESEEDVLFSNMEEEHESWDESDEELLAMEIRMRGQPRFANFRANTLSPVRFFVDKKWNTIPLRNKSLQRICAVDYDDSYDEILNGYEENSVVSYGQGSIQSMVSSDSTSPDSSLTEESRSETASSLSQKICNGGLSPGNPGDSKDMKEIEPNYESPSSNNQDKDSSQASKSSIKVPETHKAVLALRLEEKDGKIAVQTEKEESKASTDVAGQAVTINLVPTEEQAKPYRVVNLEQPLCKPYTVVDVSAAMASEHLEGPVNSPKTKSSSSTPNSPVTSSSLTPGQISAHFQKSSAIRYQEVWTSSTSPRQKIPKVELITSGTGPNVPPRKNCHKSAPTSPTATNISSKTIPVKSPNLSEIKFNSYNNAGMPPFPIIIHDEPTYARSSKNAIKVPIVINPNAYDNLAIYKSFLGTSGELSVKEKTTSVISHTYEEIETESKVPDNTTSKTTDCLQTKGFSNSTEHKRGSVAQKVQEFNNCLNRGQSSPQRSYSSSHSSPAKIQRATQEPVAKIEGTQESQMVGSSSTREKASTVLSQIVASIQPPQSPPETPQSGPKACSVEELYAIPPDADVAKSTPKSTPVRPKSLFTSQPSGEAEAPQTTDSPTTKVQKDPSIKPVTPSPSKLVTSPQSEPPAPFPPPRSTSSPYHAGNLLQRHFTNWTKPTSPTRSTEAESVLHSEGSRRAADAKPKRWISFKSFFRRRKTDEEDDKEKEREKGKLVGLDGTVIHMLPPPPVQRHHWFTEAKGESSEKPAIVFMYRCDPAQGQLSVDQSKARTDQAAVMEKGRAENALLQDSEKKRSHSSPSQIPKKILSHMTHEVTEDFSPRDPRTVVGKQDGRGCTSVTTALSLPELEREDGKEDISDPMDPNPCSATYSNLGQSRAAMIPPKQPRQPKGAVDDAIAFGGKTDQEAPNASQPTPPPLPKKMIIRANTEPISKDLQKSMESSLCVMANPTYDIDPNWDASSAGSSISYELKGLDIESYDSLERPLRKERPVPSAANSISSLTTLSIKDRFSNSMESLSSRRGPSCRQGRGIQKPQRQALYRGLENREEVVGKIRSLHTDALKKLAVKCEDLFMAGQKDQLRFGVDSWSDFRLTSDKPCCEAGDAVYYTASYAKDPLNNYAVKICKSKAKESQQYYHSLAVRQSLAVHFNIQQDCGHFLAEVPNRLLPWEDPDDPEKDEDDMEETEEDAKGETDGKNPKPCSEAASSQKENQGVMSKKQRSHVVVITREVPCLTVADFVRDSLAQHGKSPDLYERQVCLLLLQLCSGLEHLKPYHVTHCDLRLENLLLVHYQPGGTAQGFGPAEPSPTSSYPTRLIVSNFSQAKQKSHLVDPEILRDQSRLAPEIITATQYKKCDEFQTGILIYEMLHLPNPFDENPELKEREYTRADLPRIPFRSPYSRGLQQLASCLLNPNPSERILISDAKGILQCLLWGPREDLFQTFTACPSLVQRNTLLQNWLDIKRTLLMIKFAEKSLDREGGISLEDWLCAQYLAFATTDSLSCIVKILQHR", "outline": "as §1"}}, "note": "Like-named read-outs stand apart in the source and are kept apart here."}
{"smiles": "CCN1CCN(c2ccc(Nc3cc(Nc4cccc5c4N(C(C)=O)CC5)ccn3)cc2)CC1", "note": "[Compound 1938]", "values": [{"measurement": "inhibition at 1 µM", "setting": "[1]; read-out: % Inhibition Point 1", "value": -3.77, "unit": "%"}, {"measurement": "inhibition at 1 µM", "setting": "[1]; read-out: % Inhibition Point 2", "value": -2.13, "unit": "%"}, {"measurement": "inhibition at 1 µM", "setting": "[1]; read-out: % Inhibition mean", "value": -3, "unit": "%"}, {"measurement": "inhibition at 1 µM", "setting": "[2]; read-out: % Inhibition Point 1", "value": 4.32, "unit": "%"}, {"measurement": "inhibition at 1 µM", "setting": "[2]; read-out: % Inhibition Point 2", "value": 3.3, "unit": "%"}, {"measurement": "inhibition at 1 µM", "setting": "[2]; read-out: % Inhibition mean", "value": 4, "unit": "%"}, {"measurement": "inhibition at 1 µM", "setting": "[3]; read-out: % Inhibition Point 1", "value": 6.48, "unit": "%"}, {"measurement": "inhibition at 1 µM", "setting": "[3]; read-out: % Inhibition Point 2", "value": 4, "unit": "%"}, {"measurement": "inhibition at 1 µM", "setting": "[3]; read-out: % Inhibition mean", "value": 5.34, "unit": "%"}, {"measurement": "inhibition at 1 µM", "setting": "[4]; read-out: % Inhibition Point 1", "value": 12, "unit": "%"}, {"measurement": "inhibition at 1 µM", "setting": "[4]; read-out: % Inhibition Point 2", "value": 9, "unit": "%"}, {"measurement": "inhibition at 1 µM", "setting": "[4]; read-out: % Inhibition mean", "value": 11, "unit": "%"}, {"measurement": "inhibition at 1 µM", "setting": "[5]; read-out: % Inhibition Point 1", "value": 5.55, "unit": "%"}, {"measurement": "inhibition at 1 µM", "setting": "[5]; read-out: % Inhibition Point 2", "value": 3.46, "unit": "%"}, {"measurement": "inhibition at 1 µM", "setting": "[5]; read-out: % Inhibition mean", "value": 4.5, "unit": "%"}, {"measurement": "inhibition at 1 µM", "setting": "[6]; read-out: % Inhibition Point 1", "value": 6.51, "unit": "%"}, {"measurement": "inhibition at 1 µM", "setting": "[6]; read-out: % Inhibition Point 2", "value": 5, "unit": "%"}, {"measurement": "inhibition at 1 µM", "setting": "[6]; read-out: % Inhibition mean", "value": 5.64, "unit": "%"}, {"measurement": "inhibition at 1 µM", "setting": "[7]; read-out: % Inhibition Point 1", "value": 8, "unit": "%"}, {"measurement": "inhibition at 1 µM", "setting": "[7]; read-out: % Inhibition Point 2", "value": 6, "unit": "%"}, {"measurement": "inhibition at 1 µM", "setting": "[7]; read-out: % Inhibition mean", "value": 7, "unit": "%"}, {"measurement": "inhibition at 1 µM", "setting": "[8]; read-out: % Inhibition Point 1", "value": 25, "unit": "%"}, {"measurement": "inhibition at 1 µM", "setting": "[8]; read-out: % Inhibition Point 2", "value": 18, "unit": "%"}, {"measurement": "inhibition at 1 µM", "setting": "[8]; read-out: % Inhibition mean", "value": 21, "unit": "%"}]}
